Experimental data taken from US8653146B2, “Method for treating Th17 inflammatory disease through inhibition of vascular endothelial growth factor receptors and pharmaceutical composition therefor” (Postech Academy-Industry Foundation, priority 2009, dated 2014).

Columns and labels:
Assay type in all cases: in vivo, C57BL/6 mice
[1] = system: gamma interferon, IL-17 and IL-6 in BAL fluid; assay: Cytokine levels (gamma interferon, IL-17, IL-6) in BAL fluid of OVA/LPS asthma animal models by ELISA
Procedure: (§1) To construct asthma animal models, C57BL/6 (female, 6 weeks old) mice were divided into groups, each consisting of five mice and sensitized with 75 μg of ovalbumn (OVA) as an allergen and 10 μg of an endotoxin (lipopolysaccharide, LPS) as an adjuvant via an intranasal route on Day 0, 1, 2 and 7. Some mice in experiment groups were intraperitoneally injected with SU5416 (purchased from Sigma) at a dose of 1 mg/kg or 10 mg/kg, or anti-Flk-1 (purchased from R&D systems) at a dose of 0.1, 1 or 10 μg 30 min before the intranasal administration of OVA and LPS. On days 14, 15, 21 and 22, OVA (50 μg) was intranasally administered to the animals after anesthesia.
The mice were examined for pulmonary inflammation 6 hours (day 22) and 48 hours (day 24) after the last OVA administration. In this regard, the mice were anesthetized by intraperitoneal injection of a mixture of ketamin and xylazine and allowed to undergo thoracotomy to expose the trachea into which a catheter was then inserted, followed by ligation. The airway was washed by injecting 1 mL of sterile saline twice to obtain bronchoalveolar lavage (BAL) fluid. […]
(§2) The BAL fluid was centrifuged at 4° C. at 3000 rpm for 10 min and the cell pellet thus formed was suspended in PBS (phosphate buffered saline). […] In a 1000× magnified sight under an optical microscope, 300 or more inflammatory cells were observed and classified into macrophages, lymphocytes, neutrophils, and eosinophils which were then counted. In addition, levels of gamma interferon, responsible for Th1 inflammatory response, and IL-17 and IL-6, both responsible for Th17 inflammatory response, in the BAL fluid were quantified by ELISA. […]
Mice in the experimental groups were intraperitoneally injected with 0.1, 1.0 and 10 μg of a monoclonal antibody against VEGFR-2 (anti-Flk-1, R&D Systems) while mice in the control group were intraperitoneally injected with PBS. […] BAL fluid obtained 24 hours after the sensitization (day 1) was quantitatively analyzed for inflammatory cell and IL-6 levels and the results are shown in FIG. 13.

[2] = system: immune cells isolated from local lymph nodes; assay: Cytokine secretion by local lymph node immune cells in response to allergen (OVA) stimulus, ELISA; conditions: SU5416 upon sensitization; six hours after three OVA challenges (day 21); FIGS. 10b and 10c
Procedure: as §1, with “On days 14, 15, 21 and 22, OVA (50 μg) was intranasally administered to the animals after anesthesia.” left out
(§3) In this regard, the mice were anesthetized by intraperitoneal injection of a mixture of ketamin and xylazine and allowed to undergo thoracotomy to expose the trachea into which a catheter was then inserted, followed by ligation. The airway was washed by injecting 1 mL of sterile saline twice to obtain bronchoalveolar lavage (BAL) fluid. For the analysis of T lymphocytes in pulmonary tissues, cells were extracted from the local lymph nodes of the lung excised.
The cells obtained from the lymph nodes were incubated for 72 hours in RPMI (Gibco) supplemented with 100 μg/ml OVA, 10% FBS, and an antibiotic before respective cytokines responsible for Th1-, Th17- and Th2-mediated inflammatory responses were quantified using ELISA. […]

[3] = system: Th1- and Th17-mediated immune responses; assay: Overall conclusion on lung inflammation and Th1/Th17 immune responses in asthma animal models
Procedure: VEGFR inhibitors were assayed for inhibitory activity in asthma animal models suffering from Th17-mediated inflammation.
as §1
as §3, with “The mice were examined for pulmonary inflammation 6 hours (day 22) and 48 hours (day 24) after the last OVA administration. In” for “In”

[4] = system: inflammatory cells in BAL fluid; assay: Inflammatory cell count in BAL fluid of OVA/LPS-sensitized asthma animal models; conditions: SU5416 1 mg/kg or 10 mg/kg i.p. 30 min before OVA/LPS sensitization (days 0, 1, 2, 7); 48 hours after last OVA injection (day 24); FIG. 9
Procedure: as §1
The mice were examined for pulmonary inflammation 6 hours (day 22) and 48 hours (day 24) after the last OVA administration. […]
as §2

[5] = SU5416 upon sensitization, six hours after three rounds of OVA challenge (day 21), FIG. 10a

SMILES: Cc1cc(C)c(/C=C2\C(=O)Nc3ccccc32)[nH]1 [SU5416, Semaxanib]
- IL-6 level in BAL fluid ([1]; SU5416 10 mg/kg, 6 hours after three rounds of sensitization with OVA and LPS, vs OVA/LPS_sham, FIG. 11): lower amounts of IL-6 than did the control
- level of IL-17 in BAL fluid [1, 5]: significantly decrease
- level of gamma interferon in BAL fluid [1, 5]: significantly decrease
- IL-17 secreted by local lymph node immune cells in response to allergen stimulus [2]: significantly decreased level
- gamma interferon secreted by local lymph node immune cells in response to allergen stimulus [2]: significantly decreased level
- inflammation in the lung ([3]; summary of Examples 1 and 2): excellently suppress inflammation in the lung
- Th1- and Th17-mediated immune responses ([3]; summary of Examples 1 and 2, immunological perspective): suppressive of Th1- and Th17-mediated immune responses
- inflammatory cell count in BAL fluid [4]: reduced in a dose-dependent manner
